Laboratory results taken from US20230085307A1, “PYRIDAZINONE COMPOUND AND HERBICIDE” (NISSAN CHEMICAL CORPORATION, priority 2019, published 2023).

How the values were obtained:
Conditions in all cases: 320 g/ha
barnyard grass [1] = experiment: Test Example 3: herbicidal effect by foliage application, Wagner pot (Table 18, symbol H); type: in vivo, barnyard grass (Echinochloa crus-galli)
Summary of the method: (§1)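 Plants were sown in alluvial soil held under 0.1–0.5 cm standing water and grown 14 days in a greenhouse at 25–30 °C. An emulsifiable formulation, water-diluted to the set dose, was then sprayed onto the foliage, and effects were scored three weeks later using previously defined criteria.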

Chinese sprangletop = experiment: Test Example 3: herbicidal effect by foliage application, Wagner pot (Table 18, symbol D); type: in vivo, chinese sprangletop (Leptochloa chinensis)
Summary of the method: as §1

rice flat sedge = experiment: Test Example 3: herbicidal effect by foliage application, Wagner pot (Table 18, symbol E); type: in vivo, rice flat sedge (Cyperus iria)
Summary of the method: as §1

directly sowed rice = experiment: Test Example 3: effect on crop by foliage application, Wagner pot (Table 18, symbol b); type: in vivo
Experimental: [Test Example 3] Herbicidal Effect Test by Foliage Application After alluvial soil was placed into 1/10000 are of Wagner pot, water was poured and mixed to form a submerged condition having a water depth of 0.1 cm to 0.5 cm. Seeds of barnyard grass, Chinese sprangletop, rice flat sedge, and rice were sowed and the pot was placed in a greenhouse at 25° C. to 30° C. for growth of the plants. After 14-day growth of the plants, the emulsion agent of the compound of the present invention prepared according to Formulation Example 2 was diluted with water so as to achieve a predetermined herbicide amount, and the diluted emulsion agent was uniformly applied to a foliage part with a small-sized spray. Three weeks after the herbicide application, the effect of the herbicide on each plant was evaluated according to the criteria of Test Example 1.

southern crabgrass = experiment: Test Example 4: herbicidal effect by soil treatment (Table 19, symbol F); type: in vivo, southern crabgrass (Digitaria ciliaris)
Summary of the method: (§2)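 Three weeks of greenhouse growth at 25° C. to 30° C. followed a uniform surface spray of water-diluted emulsion at a predetermined herbicide amount. Seeds had been sown beforehand under about 1.5 cm of sterilized diluvial soil. Grading followed criteria set out in an earlier test.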

green foxtail = experiment: Test Example 4: herbicidal effect by soil treatment (Table 19, symbol G); type: in vivo, green foxtail (Setaria viridis)
Summary of the method: as §2

barnyard grass [2] = experiment: Test Example 4: herbicidal effect by soil treatment (Table 19, symbol H); type: in vivo, barnyard grass (Echinochloa crus-galli)
Summary of the method: as §2

wild oat = experiment: Test Example 4: herbicidal effect by soil treatment (Table 19, symbol I); type: in vivo, wild oat (Avena fatua)
Summary of the method: as §2

blackgrass = experiment: Test Example 4: herbicidal effect by soil treatment (Table 19, symbol J); type: in vivo, blackgrass (Alopecurus myosuroides)
Summary of the method: as §2

Italian ryegrass = experiment: Test Example 4: herbicidal effect by soil treatment (Table 19, symbol K); type: in vivo, Italian ryegrass (Lolium multiflorum)
Summary of the method: as §2

windgrass = experiment: Test Example 4: herbicidal effect by soil treatment (Table 19, symbol L); type: in vivo, windgrass (Apera spica-venti)
Summary of the method: as §2

velvetleaf = experiment: Test Example 4: herbicidal effect by soil treatment (Table 19, symbol M); type: in vivo, velvetleaf (Abutilon theophrasti)
Summary of the method: as §2

redroot pigweed = experiment: Test Example 4: herbicidal effect by soil treatment (Table 19, symbol N); type: in vivo, redroot pigweed (Amaranthus retroflexus)
Summary of the method: as §2

lambsquarters = experiment: Test Example 4: herbicidal effect by soil treatment (Table 19, symbol O); type: in vivo, lambsquarters (Chenopodium album)
Summary of the method: as §2

chickweed = experiment: Test Example 4: herbicidal effect by soil treatment (Table 19, symbol P); type: in vivo, common chickweed (Stellaria media)
Summary of the method: as §2

persian speedwell = experiment: Test Example 4: herbicidal effect by soil treatment (Table 19, symbol R); type: in vivo, Persian speedwell (Veronica persica)
Summary of the method: as §2

corn = experiment: Test Example 4: effect on crop by soil treatment (Table 19, symbol c); type: in vivo
Description: (§3) [Test Example 4] Herbicidal Effect Test by Soil Treatment
(§4) Sterilized diluvial soil was placed in a plastic box having a length of 21 cm, a width of 13 cm, and a depth of 7 cm. The seeds of each of southern crabgrass, green foxtail, barnyard grass, wild oat, blackgrass, Italian ryegrass, windgrass, velvetleaf, redroot pigweed, lambsquarters, chickweed, false cleavers, persian speedwell, corn, soybean, rice, wheat, beet, and rapeseed were sowed in a spot-like manner and covered with the soil having a thickness of about 1.5 cm. Subsequently, the emulsion agent of the compound of the present invention prepared according to Formulation Example 2 was diluted with water so as to achieve a predetermined herbicide amount, and the diluted emulsion agent was uniformly applied to the surface of the soil with a small-sized spray. The plastic box was placed in a greenhouse at 25° C. to 30° C. for growth of the plants. Three weeks after the herbicide application, the effect of the herbicide on each plant was evaluated according to the criteria of Test Example 1.

soybean = experiment: Test Example 4: effect on crop by soil treatment (Table 19, symbol d); type: in vivo
Description: as §3, §4

In the case of `Cc1nn(C)c(=O)c(-c2c(-c3ccc(OC(F)F)cc3)sc3ccc(F)cc23)c1O` [Compound No. 2-042, 4-(2-(4-(difluoromethoxy)phenyl)-5-fluorobenzo[b]thiophen-3-yl)-5-hydroxy-2,6-dimethylpyridazin-3(2H)-one], the “herbicidal effect on H (barnyard grass), rating 0-5” value (barnyard grass [1]) was 5 (Herbicidal rate of 90% or more (almost completely withered)), the “herbicidal effect on D (Chinese sprangletop), rating 0-5” value (Chinese sprangletop) was 3 (Herbicidal rate of 40% or more and less than 70%) and the “herbicidal effect on E (rice flat sedge), rating 0-5” value (rice flat sedge) was 5 (Herbicidal rate of 90% or more (almost completely withered)). The “effect on crop b (directly sowed rice), rating 0-5” value (directly sowed rice) was 1 (Herbicidal rate of 5% or more and less than 20%), the “herbicidal effect rating, F: southern crabgrass” value (southern crabgrass) was 3 (Herbicidal rate of 40% or more and less than 70%) and the “herbicidal effect rating, G: green foxtail” value (green foxtail) was 5 (Herbicidal rate of 90% or more (almost completely withered)). For the same compound, the “herbicidal effect rating, H: barnyard grass” value (barnyard grass [2]) was 4 (Herbicidal rate of 70% or more and less than 90%), the “herbicidal effect rating, I: wild oat” value (wild oat) was 0 (Herbicidal rate of 5% or less (almost no effect)) and the “herbicidal effect rating, J: blackgrass” value (blackgrass) was 3 (Herbicidal rate of 40% or more and less than 70%). The “herbicidal effect rating, K: Italian ryegrass” value (Italian ryegrass) was 5 (Herbicidal rate of 90% or more (almost completely withered)), the “herbicidal effect rating, L: windgrass” value (windgrass) was 3 (Herbicidal rate of 40% or more and less than 70%) and the “herbicidal effect rating, M: velvetleaf” value (velvetleaf) was 5 (Herbicidal rate of 90% or more (almost completely withered)). The “herbicidal effect rating, N: redroot pigweed” value (redroot pigweed) was 5 (Herbicidal rate of 90% or more (almost completely withered)), the “herbicidal effect rating, O: lambsquarters” value (lambsquarters) was 5 (Herbicidal rate of 90% or more (almost completely withered)) and the “herbicidal effect rating, P: chickweed” value (chickweed) was 4 (Herbicidal rate of 70% or more and less than 90%). For the same compound, the “herbicidal effect rating, R: persian speedwell” value (persian speedwell) was 5 (Herbicidal rate of 90% or more (almost completely withered)), the “effect rating on crop, c: corn” value (corn) was 0 (Herbicidal rate of 5% or less (almost no effect)) and the “effect rating on crop, d: soybean” value (soybean) was 0 (Herbicidal rate of 5% or less (almost no effect)).
